Measurements taken from patent US6462086B1, “Non-malignant disease treatment with Ras antagonists” (Ramot University Authority for Applied Research and …, priority 1999, dated 2002).
Entries after “also recorded” stand apart in the source; their conditions may differ.

What was measured:
[1] = test system: lymphocyte surface markers (CD3, CD4, CD8, IA-k, Vb17, CD62L); test: FACS analysis of surface markers on lymph node lymphocytes of EAE mice; assay type: in vivo, mouse; settings: percentages of positively stained cells among 10,000; EAE mice + FTS, day 10
Procedure: Single cell suspensions were prepared from the draining lymph nodes of mice in which EAE was induced, on day 10 post immunization for EAE-induction. Cells were incubated on ice, for 30 min with 20 μl of the monoclonal FITC-conjugated anti-CD62L, anti-IA-k ([…]) and anti-Vb17 antibodies (Becton and Dickinson, USA). The proportions of cells expressing these surface markers were examined by a fluoresecence activated cell sorter (FACS), and were calculated as the percentages of positively stained cells among 10,000 cells enumerated.

MRL/lpr mice [2] = test: Serum autoantibodies by ELISA in MRL/lpr and MRL/++ mice; assay type: in vivo, mouse; settings: 16 weeks of age
Procedure: FTS was synthesized as previously described (13). FTS was stored in chloroform, which was evaporated under a stream of nitrogen immediately before use. The powder was dissolved in absolute ethanol and diluted to the desired concentration in sterile saline made basic with NaOH. 200 μl of carrier solution containing 100 μg of FTS (5 mg/kg) were injected intraperitoneally (i.p.) into each mouse. Control solution was prepared at the same time starting with a chloroform solution.
Mice were treated once a day, 3-5 times a week starting from 6 or 10 weeks of age until 18 weeks of age.
The mice were bled at 16 weeks of age by retro-orbital sinus puncture and the sera were separated by centrifugation and stored at −70° C. until assayed. The sera were tested by ELISA for the presence of different autoantibodies as previously described (15, 16). This included serum dependent (β2-GPI dependent) and independent antibodies to cardiolipin (aCL) and antibodies to single and double stranded DNA (anti-ssDNA, anti-dsDNA).

[3] = test system: TAA-induced liver cirrhosis in Wistar rats; test: Hepatic hydroxyproline levels in TAA-induced cirrhosis; assay type: in vivo, rat
Procedure: Liver cirrhosis was induced in rats by intraperitoneal (i.p.) administration of TAA 200 mg/kg twice weekly for 12 weeks, as previously described (1, 2). […] The FTS was dissolved in PBS and administered i.p. 3 times a week to rats according to their assigned groups. Four groups containing 6 rats each were treated as follows. One group received TAA 200 mg/kg i.p. twice a week and i.p. injections of PBS 3 days a week for 12 weeks (cirrhotic controls for the FTS-treated groups). A second group received TAA for 12 weeks and FTS 5 mg/kg, 3 times a week. […] The two control groups consisted of one that received PBS injections without TAA for 12 weeks (normal controls) and a group of 5 rats that received only FTS 5 mg/kg i.p. for 12 weeks to monitor the appearance of adverse effects. Quantitative determination of hepatic hydroxyproline levels was performed as previously described (2). The hydroxyproline levels were analyzed twice and separately for each liver.

MRL/lpr mice [4] = test: Proteinuria (dipstick) in MRL mice; assay type: in vivo, mouse; settings: MRL/lpr mice treated 5 days a week from 6 weeks of age
Procedure: The presence of proteinuria was measured on freshly expressed urine samples at weekly intervals. The protein content was evaluated semiquantitatively using a commercial dipstick method (Macherey-Nagel, Germany). This colorimetric assay is specific for albumin, with approximate protein concentration as follows: 0, 30, 100 and 500 mg/dl (mg%).

EAN in Lewis rats = test: Experimental autoimmune neuritis (EAN) in Lewis rats, clinical score and rotarod; assay type: in vivo, rat
[5] = test system: spleen lymphocytes of MRL/lpr and MRL/++ mice; test: MRL/lpr and MRL/++ mouse spleen lymphocyte proliferation ex vivo; assay type: in vivo; settings: for response to ConA (stimulation index): 5 mg/Kg FTS for 3 months
Procedure: Mice were killed by cervical dislocation and spleens removed with sterile precautions and placed in disposable plastic Petri dishes containing Dulbecco's phosphate-buffered saline (DPBS). Single cell suspensions were obtained by expressing DPBS through the spleen using a syringe and 19 gauge needle. The cells were suspended in DPBS and centrifuged at 1100 rpm for 7 minutes. Erythrocytes were lysed by a 7-minute incubation in 0.83% (weight/volume) ammonium chloride, and cells were immediately washed three times with DPBS. Spleen cells were suspended to a concentration of 3×10^6 cells/ml in RPMI-1640 medium containing 5% fetal calf serum (FCS), 100 units/ml penicillin, 100 μg/ml streptomycin, 2 mM L-glutamine, 0.1 mM non-essential amino acids, 1 mM sodium pyruvate, and 50 μM 2-mercaptoethanol. Cells were cultured at a concentration of 6×10^5 cells/200 μl culture medium/well in 96-well, flat-bottomed, microculture plates, and were incubated for 72 hours in a humidified atmosphere of 95% air and 5% CO2 at 37° C. At the end of this time, 1 μCi tritiated thymidine (3H-TdR) was added to each well in a 10 μl volume and the cultures were further incubated for 18 hours. Cells from each microculture were harvested on fibroglass filters with multiharvester and counted in liquid scintillation β counter.
Mitogens and antigens were diluted to appropriate concentrations in the incubation medium and added to the wells at the beginning of incubation period to give a final concentration of 1.0 μg/ml lipopolysaccharide (LPS), 1.0 μg/ml Concanavalin A (ConA) or 10 μg/ml beta2-Glycoprotein I (beta2-GPI). Spontaneous proliferation (without mitogen or antigen) was also assessed.
To determine the effect of FTS on the MRL/lpr and MRL/++ mouse splenocyte proliferation ex vivo, spleen cells suspensions were prepared from three individual spleens per group, and were separately analyzed in culture (in triplicate). Splenocyte proliferation was evaluated in the presence of LPS, ConA or β2-GPI.
The results are expressed as the mean value of stimulation index per group. The stimulation index was calculated as follows: the mean dpm of cells cultured in the presence of mitogen/antigen divided by the mean dpm of cells cultured in the absence of mitogen/antigen.
The effect of FTS on lymphocyte proliferation in vivo in MRL/lpr and control MRL/++ mice was determined by ex-vivo experiments. The mice received 5 mg/Kg FTS (5 days a week) for 3 months and spleen lymphocyte proliferation assays were then performed in vitro with no added FTS. Baseline 3H-TdR incorporation was similar in all four groups examined except for a trend towards higher values in the MRL/++ mice treated with FTS. […] As described previously (18, 19), the response of the MRL/lpr mice to ConA was markedly lower than in the MRL/++ control mice. […] An antigen-specific proliferative response to β2-GPI was measured and a significant 50% reduction in the response of lymphocytes of FTS-treated mice was measured in both MRL/lpr and MRL/++ mice.

[6] = FTS 5 mg/kg/day i.p. days 0-10 only

## CC(C)=CCC/C(C)=C/CC/C(C)=C/CSc1ccccc1C(=O)O [FTS, farnesyl thiosalicylic acid]
[1]
  proportion of lymphocytes expressing CD3: 94.2 ± 2.7
  proportion of lymphocytes expressing CD4: 51.6 ± 1.9
  proportion of lymphocytes expressing CD8: 26.2 ± 9.2
  proportion of lymphocytes expressing CD62L: 67.1 ± 7.3
  proportion of lymphocytes expressing IA-k: 28.3 ± 3.2
  proportion of lymphocytes expressing Vb17: 11.3 ± 2.1
MRL/lpr mice [2]
  levels of anti-dsDNA antibodies: did lower the levels; also recorded: significant decrease
  levels of anti-ssDNA antibodies: did not affect the levels
  levels of non-serum dependent aCL antibodies: did not affect the levels
  levels of β2-GPI dependent aCL antibodies: did lower the levels; also recorded: significant decrease
[3]; TAA plus FTS, TAA alone 7.7±0.9
  hepatic hydroxyproline levels: 3.8±0.5 mg/g protein
[3]; control group treated with FTS only
  hepatic hydroxyproline levels: 1.6±0.1 mg/g protein
MRL/lpr mice [4]
  proteinuria: very low levels of proteinuria; also recorded: normalized
EAN in Lewis rats; [6]
  recovery: recovered faster than the other groups
  severity of disease: equal severity to controls
EAN in Lewis rats; FTS 5 mg/kg/day i.p. days 0-28
  clinical score / rotarod, peak of disease: significantly ameliorated the peak of disease
EAN in Lewis rats; FTS days 0-10 only
  rats with brief relapses of clinical signs during recovery: Three of the 5 rats
EAN in Lewis rats; treatment from day 10
  recovery: recovered significantly faster
EAN in Lewis rats; treatment from day 10, ±SE, n=10, control 4.12±0.61
  Mean clinical scores for days 15-19: 2.74±0.66
[5]; 5 mg/Kg FTS 5 days a week for 3 months
  reduction of the response to LPS (stimulation index): two-fold reduction
[5]; FTS 5 mg/Kg/day
  decrease in splenocyte proliferation to ConA, LPS and β2-GPI: 50%
[5]; MRL/++ mice
  response to ConA (stimulation index): not in lymphocytes of the FTS-treated MRL/++
[5]; MRL/lpr mice
  response to ConA (stimulation index): further reduced
[5]; both MRL/lpr and MRL/++ mice
  reduction in the proliferative response to β2-GPI: 50%
